Source: ChEMBL document CHEMBL1201862, “PubChem BioAssay data set” (2004)
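Five concentrations, 48 hours, 96-well plates. The concentration for 50% growth inhibition is given as GI50.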 Calls of active or inactive are those of the source. Rule as the data show it: active = GI50 up to about 1.1 µM and inactive = higher.

How the values were obtained:
Assay in all cases: growth of human tumour cells (NCI), 48 h
A549 = system: A549
CAKI-1 = system: CAKI-1
EKVX = system: EKVX
HCC 2998 = system: HCC 2998
HT-29 = system: HT-29
K562 = system: K562
M14 = system: M14
MDA-N = system: MDA-N
Malme-3M = system: Malme-3M
NCI-H226 = system: NCI-H226
OVCAR-3 = system: OVCAR-3
OVCAR-8 = system: OVCAR-8
PC-3 = system: PC-3
SF-268 = system: SF-268
U-251 = system: U-251
OVCAR-4 = system: OVCAR-4
RPMI-8226 = system: RPMI-8226
SK-MEL-28 = system: SK-MEL-28
HL-60 = system: HL-60

Measured: GI50

Cc1n[nH]c(=O)n1N1C(=O)CCCC1=O
inactive: A549 > 100 µM | CAKI-1 > 100 µM | EKVX > 100 µM | HCC 2998 > 100 µM | HT-29 > 100 µM | K562 63.4 µM | M14 > 100 µM | MDA-N > 100 µM | Malme-3M > 100 µM | NCI-H226 > 100 µM | OVCAR-3 > 100 µM | OVCAR-8 > 100 µM | PC-3 > 100 µM | SF-268 > 100 µM | U-251 > 100 µM

CN(C(=O)Cc1ccccc1)n1cnn(CC(=O)OC(C)(C)C)c1=S
inactive: A549 > 10 µM | CAKI-1 > 10 µM | EKVX > 10 µM | HCC 2998 > 10 µM | HT-29 > 10 µM | K562 > 10 µM | M14 > 10 µM | MDA-N > 10 µM | Malme-3M > 10 µM | OVCAR-3 > 10 µM | OVCAR-4 > 10 µM | OVCAR-8 > 10 µM | PC-3 > 10 µM | RPMI-8226 > 10 µM | SF-268 > 10 µM | SK-MEL-28 > 10 µM | U-251 > 10 µM

Cn1c(-c2cccs2)cc(-c2ccsc2)c1-c1ccsc1
inactive: A549 > 100 µM | CAKI-1 > 100 µM | EKVX > 100 µM | HCC 2998 > 100 µM | HT-29 93.5 µM | K562 > 100 µM | M14 > 100 µM | MDA-N > 100 µM | Malme-3M > 100 µM | NCI-H226 > 100 µM | OVCAR-3 > 100 µM | OVCAR-4 > 100 µM | OVCAR-8 > 100 µM | PC-3 > 100 µM | SF-268 > 100 µM | SK-MEL-28 > 100 µM | U-251 > 100 µM

OCc1ccc2c(c1)CC1(C2)Cc2cc3c(cc2C1O)CCC3 (stereo unspecified)
inactive: A549 6.43 µM | CAKI-1 5.25 µM | EKVX 10.1 µM | HCC 2998 6.55 µM | HL-60 2.2 µM | HT-29 3.27 µM | K562 1.58 µM | M14 3.4 µM | Malme-3M 5.01 µM | NCI-H226 7.31 µM | OVCAR-3 4.78 µM | OVCAR-4 10.4 µM | OVCAR-8 5.74 µM | PC-3 2.34 µM | RPMI-8226 3.18 µM | SF-268 10.9 µM | SK-MEL-28 6.34 µM | U-251 3.3 µM

Cn1ccnc1Sc1ccc(/C=N\NC(=O)c2cccc(F)c2)cc1[N+](=O)[O-]
inactive: A549 69.3 µM | CAKI-1 > 100 µM | EKVX 45.1 µM | HCC 2998 > 100 µM | HL-60 > 100 µM | HT-29 > 100 µM | K562 > 100 µM | M14 > 100 µM | Malme-3M > 100 µM | NCI-H226 > 100 µM | OVCAR-3 50 µM | OVCAR-4 25.3 µM | OVCAR-8 21.7 µM | PC-3 24 µM | RPMI-8226 > 100 µM | SF-268 24 µM | SK-MEL-28 79.4 µM | U-251 21.1 µM

NS(=O)(=O)c1nnc(NS(=O)(=O)C(F)(F)F)s1
inactive: A549 > 100 µM | CAKI-1 > 100 µM | EKVX > 100 µM | HCC 2998 > 100 µM | HL-60 > 100 µM | HT-29 > 100 µM | K562 > 100 µM | M14 > 100 µM | Malme-3M > 100 µM | NCI-H226 > 100 µM | OVCAR-3 > 100 µM | OVCAR-4 > 100 µM | OVCAR-8 > 100 µM | PC-3 > 100 µM | RPMI-8226 > 100 µM | SF-268 > 100 µM | SK-MEL-28 > 100 µM | U-251 > 100 µM

CC[S+]([O-])C(=O)N(O)c1ccc(Cl)cc1 (stereo unspecified)
inactive: A549 67.3 µM | CAKI-1 17.7 µM | EKVX 26.7 µM | HCC 2998 43.3 µM | K562 16.2 µM | M14 12.8 µM | MDA-N 20 µM | NCI-H226 84.1 µM | OVCAR-3 31.6 µM | OVCAR-4 38.3 µM | PC-3 37.4 µM | RPMI-8226 1.24 µM | SF-268 20.8 µM | SK-MEL-28 17.4 µM | U-251 19.4 µM

C/C=C(C)/C=C/CC(C)CCC=C(C)C (stereo unspecified)
inactive: A549 > 100 µM | CAKI-1 > 100 µM | EKVX > 100 µM | HL-60 44.5 µM | HT-29 > 100 µM | K562 > 100 µM | M14 > 100 µM | MDA-N > 100 µM | NCI-H226 > 100 µM | OVCAR-3 > 100 µM | OVCAR-4 92.9 µM | OVCAR-8 > 100 µM | SK-MEL-28 > 100 µM | U-251 > 100 µM

c1ccc2c(c1)CC1=C(O2)c2ccccc2OC1
inactive: A549 47.3 µM | CAKI-1 23.1 µM | EKVX 16.1 µM | HCC 2998 21.8 µM | HT-29 31.6 µM | M14 38.2 µM | MDA-N 19.1 µM | Malme-3M 52.6 µM | NCI-H226 50.2 µM | OVCAR-3 21.3 µM | OVCAR-4 21.1 µM | OVCAR-8 35.7 µM | PC-3 38.2 µM | RPMI-8226 21.8 µM | SF-268 29.4 µM | U-251 22.3 µM

CSc1nc(O)c(C#N)c(-c2ccccc2)n1
inactive: A549 > 100 µM | CAKI-1 > 100 µM | EKVX > 100 µM | HCC 2998 > 100 µM | HL-60 > 100 µM | HT-29 > 100 µM | K562 > 100 µM | M14 > 100 µM | NCI-H226 > 100 µM | OVCAR-3 > 100 µM | OVCAR-4 > 100 µM | OVCAR-8 > 100 µM | PC-3 > 100 µM | RPMI-8226 > 100 µM | SF-268 > 100 µM | SK-MEL-28 > 100 µM | U-251 > 100 µM

c1ccc2sc(C3(N4CCCC4)CCCCCC3)cc2c1
inactive: A549 19.6 µM | CAKI-1 20.9 µM | EKVX 17.3 µM | HCC 2998 13.6 µM | HL-60 17.4 µM | HT-29 4.1 µM | K562 17.2 µM | M14 14.8 µM | MDA-N 15.7 µM | NCI-H226 21.3 µM | OVCAR-3 14.3 µM | OVCAR-4 13.4 µM | OVCAR-8 17.9 µM | SF-268 13.5 µM | SK-MEL-28 20.4 µM | U-251 17.2 µM

COc1cc(C2SC(=N)Nc3c2c(C)nn3C(=O)c2ccccc2O)cc(OC)c1OC (stereo unspecified)
inactive: A549 4.24 µM | CAKI-1 6.05 µM | EKVX > 10 µM | HT-29 > 10 µM | K562 2.81 µM | M14 5.92 µM | MDA-N 6.14 µM | Malme-3M > 10 µM | NCI-H226 > 10 µM | OVCAR-3 > 10 µM | OVCAR-4 4.89 µM | OVCAR-8 > 10 µM | PC-3 5.48 µM | RPMI-8226 > 10 µM | SF-268 6.71 µM | SK-MEL-28 > 10 µM | U-251 6.76 µM

Oc1ccc2ccccc2c1/C=N/Cc1c(O)ccc2ccccc12
inactive: A549 86.7 µM | CAKI-1 87.7 µM | EKVX 7.71 µM | HCC 2998 42.2 µM | HT-29 > 100 µM | K562 18.5 µM | M14 44.5 µM | MDA-N 51.1 µM | Malme-3M 43.2 µM | OVCAR-3 18.4 µM | OVCAR-4 > 100 µM | OVCAR-8 34.5 µM | PC-3 38.7 µM | RPMI-8226 12.6 µM | SF-268 37.2 µM | SK-MEL-28 > 100 µM | U-251 29 µM

c1cncc(CNc2ncn[nH]2)c1
inactive: A549 > 100 µM | CAKI-1 > 100 µM | EKVX > 100 µM | HT-29 > 100 µM | K562 > 100 µM | M14 > 100 µM | MDA-N > 100 µM | Malme-3M > 100 µM | NCI-H226 > 100 µM | OVCAR-3 > 100 µM | OVCAR-4 > 100 µM | OVCAR-8 > 100 µM | PC-3 > 100 µM | RPMI-8226 > 100 µM | SF-268 > 100 µM | SK-MEL-28 > 100 µM | U-251 > 100 µM

C[C@H](C/C=C/C(C)(C)O)[C@H]1CC[C@@]2(C)[C@@H]3CC[C@H]4C(C)(C)[C@@H](O)CC[C@@]45C[C@@]35CC[C@]12C
inactive: A549 14.7 µM | EKVX 14.1 µM | HT-29 26 µM | K562 6.31 µM | M14 17.8 µM | MDA-N 34.1 µM | NCI-H226 17.1 µM | OVCAR-3 50.5 µM | OVCAR-4 16.9 µM | OVCAR-8 14.8 µM | PC-3 26.3 µM | RPMI-8226 15.8 µM | SF-268 1.94 µM | SK-MEL-28 18.8 µM | U-251 17.4 µM

COC(=O)[C@H]1CO[C@H]2C/C(C)=C/CC/C(C)=C/CC[C@@]3(C)O[C@@H]3C[C@H]21
inactive: A549 16.3 µM | CAKI-1 36.1 µM | EKVX 19.5 µM | HCC 2998 9.38 µM | HL-60 10.7 µM | HT-29 17.9 µM | K562 7.69 µM | M14 16.3 µM | NCI-H226 12 µM | OVCAR-3 10.1 µM | OVCAR-4 9.48 µM | OVCAR-8 14.7 µM | PC-3 15.3 µM | RPMI-8226 14.1 µM | SF-268 19.6 µM | SK-MEL-28 13.4 µM | U-251 18.6 µM

COc1ccc(C2CC(c3c(O)ccc4ccccc34)=NN2C(C)=O)cc1OC (stereo unspecified)
inactive: A549 24.9 µM | CAKI-1 36.5 µM | HCC 2998 23.7 µM | HT-29 40 µM | K562 13.7 µM | M14 24.1 µM | MDA-N 20.7 µM | Malme-3M 31 µM | NCI-H226 36.2 µM | OVCAR-3 23.2 µM | OVCAR-4 44.3 µM | OVCAR-8 34.4 µM | PC-3 23.6 µM | RPMI-8226 12 µM | SF-268 31.4 µM | SK-MEL-28 28.8 µM | U-251 29.6 µM
